# From patent US9029531B2 (Agios Pharmaceuticals, Inc., priority 2012, dated 2015)
# Target: T1, glutaminase (GAC) (Homo sapiens, UniProt O94925)
# T1 sequence (O94925 55-598 isoform O94925-3 limits assumed): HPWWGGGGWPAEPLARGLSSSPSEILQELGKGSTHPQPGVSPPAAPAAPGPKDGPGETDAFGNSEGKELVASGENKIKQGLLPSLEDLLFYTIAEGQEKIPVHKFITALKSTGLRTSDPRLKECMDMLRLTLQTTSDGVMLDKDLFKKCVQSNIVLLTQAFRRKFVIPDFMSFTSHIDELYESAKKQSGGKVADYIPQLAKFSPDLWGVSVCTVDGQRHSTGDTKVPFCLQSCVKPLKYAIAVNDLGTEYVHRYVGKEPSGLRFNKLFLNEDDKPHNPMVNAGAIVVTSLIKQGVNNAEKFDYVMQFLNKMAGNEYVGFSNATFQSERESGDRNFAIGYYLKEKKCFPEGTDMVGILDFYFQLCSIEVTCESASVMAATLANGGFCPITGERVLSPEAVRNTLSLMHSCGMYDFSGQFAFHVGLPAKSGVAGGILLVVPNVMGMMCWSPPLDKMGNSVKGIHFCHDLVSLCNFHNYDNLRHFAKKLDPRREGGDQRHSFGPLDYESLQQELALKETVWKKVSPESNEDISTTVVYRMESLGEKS
# Assay: Glutaminase coupled endpoint enzymatic assay (Example A)
# Type: biochemical
# Conditions: inhibition of glutaminase; assay of Example A or Example B
# From the text: In certain embodiments, exemplary compounds of Formula I include the compounds described in Table 1 and in the Examples. A compound described herein may be tested for its ability to inhibit glutaminase, e.g., by an assay as described in the Examples. For simplicity, the inhibition activity of these compounds is represented as an IC50 tested in an assay of Example A or Example B in Table 1. […] “N/A” refers to compounds wherein the IC50 is unavailable.
# In this example, the enzymatic activity of glutaminase is measured through a coupled endpoint assay. Glutamine and phosphate are supplied to GAC at a concentration equal to Km and AC50, respectively, and GAC concentration is adjusted to give a linear reaction for 60 minutes. The glutamate produced is converted to 2-OG by a kinetic excess of glutamate dehydrogenase. This second step is configured for 2×Km for NAD, since excess NAD is inhibitory. However, a kinetic excess of the third coupling enzyme, diaphorase, recycles NAD from NADH to keep the NAD concentration constant during the timecourse of the assay. Diaphorase, also supplied in kinetic excess, oxidizes NADH produced by GDH back to NAD with the concomitant reduction of rezasurin to the highly fluorescent resorufin. Resorufin in measured after the assay is stopped with SDS by Ex544/Em590. A reduction in the signal indicates inhibition of some component of the coupled enzyme system. Prospective hits are counterscreened against GDH/diaphorase alone to remove hits to the coupling enzyme system in a second assay.
# 2. Buffers • 2× Buffer (300 mM NaCl, 100 mM HEPES pH 8.5, 0.1% BSA, 0.5 mM EDTA, 100 mM sodium phosphate pH 8.5) • 5× Substrate Mix (1× Buffer final concentration, with 13 mM glutamine, 100 μM resazurin, 50 μg/ml diaphorase) • 1.2× Enzyme Mix (1× Buffer final concentration, with 0.875 μg/ml GAC, 1.56 mM NAD, 6.25 units/ml GDH) • Stop Mix (6% SDS in ddH2O) Reaction Procedure • 1. Add 1 μl compound in 100% DMSO • 2. Add 40 μl of Enzyme Mix and incubate for 60 minute at room temperature • 3. Add 10 μl of Substrate Mix to start reaction • 4. Stop reaction with 25 μl of 6% SDS and read Ex544 Em 590
row,IC50,Compound
1,< 100 nM,"Nc1ccccc1CC(=O)Nc1nnc([C@H]2CCC[C@H](c3nnc(NC(=O)Cc4ccccc4N)s3)C2)s1 [Compound 56, N,N′-(5,5′-((1S,3S)-cyclohexane-1,3-diyl)bis(1,3,4-thiadiazole-5,2-diyl))bis(2-(2-aminophenyl)acetamide)]"
2,1000 to 2000 nM,Nc1nnc([C@@H]2CCC[C@@H](c3nnc(NC(=O)Cc4ccccn4)s3)C2)s1 [Compound 58]
3,< 100 nM,"O=C(Cc1cccs1)Nc1nnc([C@H]2CCC[C@H](c3nnc(NC(=O)Cc4cccs4)s3)C2)s1 [Compound 59, N,N′-(5,5′-((1S,3S)-cyclohexane-1,3-diyl)bis(1,3,4-thiadiazole-5,2-diyl))bis(2-(thiophen-2-yl)acetamide)]"
4,500 to 1000 nM,"CSCC(=O)Nc1nnc([C@H]2CCC[C@H](c3nnc(NC(=O)CSC)s3)C2)s1 [Compound 60, N,N′-(5,5′-((1S,3S)-cyclohexane-1,3-diyl)bis(1,3,4-thiadiazole-5,2-diyl))bis(2-(methylthio)acetamide)]"
5,100 to 500 nM,COc1ccccc1CC(=O)Nc1nnc(C2CCC(c3nnc(NC(=O)Cc4ccccc4OC)s3)C2)s1 (stereo not shown) [Compound 67]
6,100 to 500 nM,COc1cccc(CC(=O)Nc2nnc(C3CCC(c4nnc(NC(=O)Cc5cccc(OC)c5)s4)C3)s2)c1 (stereo not shown) [Compound 68]
7,< 100 nM,"COc1ccccc1CC(=O)Nc1nnc([C@H]2CCC[C@H](c3nnc(NC(=O)Cc4ccccn4)s3)C2)s1 [Compound 79, 2-(2-methoxyphenyl)-N-(5-((1S,3S)-3-(5-(2-(pyridin-2-yl)acetamido)-1,3,4-thiadiazol-2-yl)cyclohexyl)-1,3,4-thiadiazol-2-yl)acetamide]"
8,< 100 nM,"COc1cccc(CC(=O)Nc2nnc([C@H]3CCC[C@H](c4nnc(NC(=O)Cc5ccccn5)s4)C3)s2)c1 [Compound 81, 2-(3-methoxyphenyl)-N-(5-((1S,3S)-3-(5-(2-(pyridin-2-yl)acetamido)-1,3,4-thiadiazol-2-yl)cyclohexyl)-1,3,4-thiadiazol-2-yl)acetamide]"
9,100 to 500 nM,"COc1cccc(CC(=O)Nc2nnc([C@H]3CCC[C@H](c4nnc(NC(C)=O)s4)C3)s2)c1 [Compound 90, N-(5-((1S,3S)-3-(5-acetamido-1,3,4-thiadiazol-2-yl)cyclohexyl)-1,3,4-thiadiazol-2-yl)-2-(3-methoxyphenyl)acetamide]"
10,< 100 nM,"CC(=O)Nc1nnc([C@H]2CCC[C@H](c3nnc(NC(=O)Cc4ccccn4)s3)C2)s1 [Compound 93, N-(5-((1S,3S)-3-(5-acetamido-1,3,4-thiadiazol-2-yl)cyclohexyl)-1,3,4-thiadiazol-2-yl)-2-(pyridin-2-yl)acetamide]"
11,< 100 nM,"COc1ccccc1CC(=O)Nc1nnc([C@H]2CCC[C@H](c3nnc(NC(C)=O)s3)C2)s1 [Compound 94, N-(5-((1S,3S)-3-(5-acetamido-1,3,4-thiadiazol-2-yl)cyclohexyl)-1,3,4-thiadiazol-2-yl)-2-(2-methoxyphenyl)acetamide]"
12,100 to 500 nM,N#Cc1ccccc1CC(=O)Nc1nnc(C2CCC(c3nnc(NC(=O)Cc4ccccc4C#N)s3)C2)s1 (stereo not shown) [Compound 95]
13,100 to 500 nM,N#Cc1ccc(CC(=O)Nc2nnc(C3CCC(c4nnc(NC(=O)Cc5ccc(C#N)cc5)s4)C3)s2)cc1 (stereo not shown) [Compound 96]
14,100 to 500 nM,N#Cc1cccc(CC(=O)Nc2nnc(C3CCC(c4nnc(NC(=O)Cc5cccc(C#N)c5)s4)C3)s2)c1 (stereo not shown) [Compound 97]
15,100 to 500 nM,O=C(Cc1ccccn1)Nc1nnc([C@@H]2CCC[C@H](c3nnc(NC(=O)Cc4ccccn4)s3)C2)s1 [Compound 102]
16,100 to 500 nM,O=C(Cc1cccnc1)Nc1nnc(C2CCC(c3nnc(NC(=O)Cc4cccnc4)s3)C2)s1 (stereo not shown) [Compound 103]
17,100 to 500 nM,COc1cccc(CC(=O)Nc2nnc([C@@H]3CC[C@H](c4nnc(NC(=O)Cc5cccc(OC)c5)s4)C3)s2)c1 [Compound 107]
18,< 100 nM,COc1cccc(CC(=O)Nc2nnc([C@@H]3CC[C@@H](c4nnc(NC(=O)Cc5cccc(OC)c5)s4)C3)s2)c1 [Compound 108]

row,IC50,Compound
1,100 to 500 nM,COc1ccc(CC(=O)Nc2nnc(C3CCC(c4nnc(NC(=O)Cc5ccc(OC)cc5)s4)C3)s2)cc1 (stereo not shown) [Compound 109]
2,500 to 1000 nM,COc1ccccc1CC(=O)Nc1nnc([C@@H]2CC[C@@H](c3nnc(NC(=O)Cc4ccccc4OC)s3)C2)s1 [Compound 117]
3,< 100 nM,"O=C(Cc1cccc(Br)n1)Nc1nnc([C@H]2CCC[C@H](c3nnc(NC(=O)Cc4cccc(Br)n4)s3)C2)s1 [Compound 118, N,N′-(5,5′-((1S,3S)-cyclohexane-1,3-diyl)bis(1,3,4-thiadiazole-5,2-diyl))bis(2-(6-bromopyridin-2-yl)acetamide)]"
4,< 100 nM,COc1ccnc(CC(=O)Nc2nnc([C@@H]3CCC[C@@H](c4nnc(NC(=O)Cc5cc(OC)ccn5)s4)C3)s2)c1 [Compound 119]
5,500 to 1000 nM,COc1cccc(CC(=O)Nc2nnc(C3CCCCC(c4nnc(NC(=O)Cc5cccc(OC)c5)s4)C3)s2)c1 (stereo not shown) [Compound 120]
6,1000 to 2000 nM,COc1ccc(CC(=O)Nc2nnc(C3CCCCC(c4nnc(NC(=O)Cc5ccc(OC)cc5)s4)C3)s2)cc1 (stereo not shown) [Compound 121]
7,1000 to 2000 nM,O=C(Cc1ccccn1)Nc1nnc(C2CCCCC(c3nnc(NC(=O)Cc4ccccn4)s3)C2)s1 (stereo not shown) [Compound 122]
8,1000 to 2000 nM,COc1ccccc1CC(=O)Nc1nnc(C2CCCCC(c3nnc(NC(=O)Cc4ccccc4OC)s3)C2)s1 (stereo not shown) [Compound 123]
9,1000 to 2000 nM,N#Cc1cccc(CC(=O)Nc2nnc(C3CCCCC(c4nnc(NC(=O)Cc5cccc(C#N)c5)s4)C3)s2)c1 (stereo not shown) [Compound 124]
10,1000 to 2000 nM,COc1ccccc1CC(=O)Nc1nnc([C@@H]2CCCC[C@H](c3nnc(NC(=O)Cc4ccccc4OC)s3)C2)s1 [Compound 125]
11,100 to 500 nM,O=C(Cc1cccnc1)Nc1nnc(C2CCCCC(c3nnc(NC(=O)Cc4cccnc4)s3)C2)s1 (stereo not shown) [Compound 126]
12,500 to 1000 nM,N#Cc1ccccc1CC(=O)Nc1nnc(C2CCCCC(c3nnc(NC(=O)Cc4ccccc4C#N)s3)C2)s1 (stereo not shown) [Compound 127]
13,500 to 1000 nM,COc1cccc(CC(=O)Nc2nnc([C@@H]3CCCC[C@H](c4nnc(NC(=O)Cc5cccc(OC)c5)s4)C3)s2)c1 [Compound 128]
14,500 to 1000 nM,COc1cccc(CC(=O)Nc2nnc([C@@H]3CCCC[C@@H](c4nnc(NC(=O)Cc5cccc(OC)c5)s4)C3)s2)c1 [Compound 129]
15,1000 to 2000 nM,COc1ccc(CC(=O)Nc2nnc([C@@H]3CCCC[C@@H](c4nnc(NC(=O)Cc5ccc(OC)cc5)s4)C3)s2)cc1 [Compound 130]
16,< 100 nM,"O=C(Cc1cccc2c1OCO2)Nc1nnc([C@H]2CCC[C@H](c3nnc(NC(=O)Cc4cccc5c4OCO5)s3)C2)s1 [Compound 218, N,N′-(5,5′-((1S,3S)-cyclohexane-1,3-diyl)bis(1,3,4-thiadiazole-5,2-diyl))bis(2-(benzo[d][1,3]dioxol-4-yl)acetamide)]"
17,1000 to 2000 nM,"O=C(Cc1cccc(OC(F)(F)F)c1)Nc1nnc([C@H]2CCC[C@H](c3nnc(NC(=O)Cc4cccc(OC(F)(F)F)c4)s3)C2)s1 [Compound 219, N,N′-(5,5′-((1S,3S)-cyclohexane-1,3-diyl)bis(1,3,4-thiadiazole-5,2-diyl))bis(2-(3-(trifluoromethoxy)phenyl)acetamide)]"

row,Compound,IC50
1,"O=C(Cc1ccccc1[N+](=O)[O-])Nc1nnc([C@H]2CCC[C@H](c3nnc(NC(=O)Cc4ccccc4[N+](=O)[O-])s3)C2)s1 [Compound 57, N,N′-(5,5′-((1S,3S)-cyclohexane-1,3-diyl)bis(1,3,4-thiadiazole-5,2-diyl))bis(2-(2-nitrophenyl)acetamide)]",100 to 500 nM
2,O=C(Cc1cccc([N+](=O)[O-])c1)Nc1nnc(C2CCC(c3nnc(NC(=O)Sc4cccc([N+](=O)[O-])c4)s3)C2)s1 (stereo not shown) [Compound 110],100 to 500 nM
